Measured values reported in patent publication US12612410B2 (CHILDREN'S HOSPITAL MEDICAL CENTER, priority 2020, dated 2026).

Biological target: T1, FLT3 (Homo sapiens, UniProt P36888)
T1 sequence (P36888 27-993): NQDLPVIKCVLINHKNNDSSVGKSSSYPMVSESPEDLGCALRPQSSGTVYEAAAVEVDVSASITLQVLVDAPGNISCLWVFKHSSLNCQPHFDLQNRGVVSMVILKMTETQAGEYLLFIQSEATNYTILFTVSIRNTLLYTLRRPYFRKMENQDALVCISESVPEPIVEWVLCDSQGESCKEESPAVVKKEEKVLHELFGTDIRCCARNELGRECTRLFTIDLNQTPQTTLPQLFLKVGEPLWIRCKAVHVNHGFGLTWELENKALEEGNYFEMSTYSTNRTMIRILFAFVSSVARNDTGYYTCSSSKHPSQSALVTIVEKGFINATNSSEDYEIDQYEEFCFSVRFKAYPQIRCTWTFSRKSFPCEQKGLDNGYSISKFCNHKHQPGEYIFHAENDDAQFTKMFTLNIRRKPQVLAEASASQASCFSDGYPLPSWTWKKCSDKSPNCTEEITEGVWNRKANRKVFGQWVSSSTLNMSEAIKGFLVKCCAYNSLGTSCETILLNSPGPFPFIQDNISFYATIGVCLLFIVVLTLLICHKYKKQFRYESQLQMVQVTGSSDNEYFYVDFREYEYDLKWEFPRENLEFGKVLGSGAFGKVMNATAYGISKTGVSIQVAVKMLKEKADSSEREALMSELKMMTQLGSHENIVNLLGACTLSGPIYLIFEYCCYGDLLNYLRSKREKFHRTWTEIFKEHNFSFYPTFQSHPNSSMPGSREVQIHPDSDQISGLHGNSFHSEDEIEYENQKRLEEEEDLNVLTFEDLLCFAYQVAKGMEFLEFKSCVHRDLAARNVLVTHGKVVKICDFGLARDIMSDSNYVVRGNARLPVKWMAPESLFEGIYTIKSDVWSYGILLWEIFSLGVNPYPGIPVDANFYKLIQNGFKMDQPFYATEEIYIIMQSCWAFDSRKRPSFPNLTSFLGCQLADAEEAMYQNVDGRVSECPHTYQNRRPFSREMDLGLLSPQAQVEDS
Assay: DiscoverX KINOMEscan competition binding, FLT3
Parameters: purchased Reaction Biology (RBC), HotSpot kinase assay

Structure (SMILES) | Kd
FC(F)(F)C1(c2cn3c(-c4cccc(N[C@@H]5CCNC5)n4)cnc3cn2)CC1 [Compound 10, (R)-N-(pyrrolidin-3-yl)-6-(6-(1-(trifluoromethyl)cyclopropyl)imidazo[1,2-a]pyrazin-3-yl)pyridin-2-amine] | 0.38 nM
FC(F)(F)COc1cn2c(-c3cccc(N[C@@H]4CCNC4)n3)cnc2cn1 [Compound 38, (R)-N-(pyrrolidin-3-yl)-6-(6-(2,2,2-trifluoroethoxy)imidazo[1,2-a]pyrazin-3-yl)pyridin-2-amine] | 0.61 nM
CC(C)(O)c1cn2c(-c3cccc(N[C@H]4CNCC[C@@H]4F)n3)cnc2cn1 [Compound 31, 2-(3-(6-(((3S,4S)-4-fluoropiperidin-3-yl)amino)pyridin-2-yl)imidazo[1,2-a]pyrazin-6-yl)propan-2-ol] | 0.55 nM
FC(F)c1cn2c(-c3cccc(N[C@H]4CNC[C@@H]4F)n3)cnc2cn1 [Compound 16, 6-(6-(difluoromethyl)imidazo[1,2-a]pyrazin-3-yl)-N-((3S,4S)-4-fluoropyrrolidin-3-yl)pyridin-2-amine] | 0.42 nM
F[C@H]1CNC[C@@H]1Nc1cccc(-c2cnc3cnc(C4CC4)cn23)n1 [Compound 50, 6-(6-cyclopropylimidazo[1,2-a]pyrazin-3-yl)-N-((3S,4S)-4-fluoropyrrolidin-3-yl)pyridin-2-amine] | 0.062 nM
FC(F)c1cn2c(-c3cccc(N[C@H]4CNCC[C@@H]4F)n3)cnc2cn1 [Compound 25, 6-(6-(difluoromethyl)imidazo[1,2-a]pyrazin-3-yl)-N-((3S,4S)-4-fluoropiperidin-3-yl)pyridin-2-amine] | 0.13 nM
CC(C)(O)c1cn2c(-c3cccc(N[C@@H]4CCCNC4)n3)cnc2cn1 [Compound 30, (R)-2-(3-(6-(piperidin-3-ylamino)pyridin-2-yl)imidazo[1,2-a]pyrazin-6-yl)propan-2-ol] | 1.5 nM

Molecules with a lower Kd, results first:

Kd | Structure (SMILES)
0.049 nM | CC1(c2cn3c(-c4cccc(N[C@H]5CNC[C@@H]5F)n4)cnc3cn2)CC1 [Compound 1, N-((3S,4S)-4-fluoropyrrolidin-3-yl)-6-(6-(1-methylcyclopropyl)imidazo[1,2-a]pyrazin-3-yl)pyridin-2-amine]
0.027 nM | CC1(c2cn3c(-c4cccc(N[C@H]5CNCC56CC6)n4)cnc3cn2)CC1 [Compound 5, (R)-N-(6-(6-(1-methylcyclopropyl)imidazo[1,2-a]pyrazin-3-yl)pyridin-2-yl)-5-azaspiro[2.4]heptan-7-amine]
0.056 nM | CC1(c2cn3c(-c4cccc(N[C@@H]5CCNC5)n4)cnc3cn2)CC1 [Compound 3, (R)-6-(6-(1-methylcyclopropyl)imidazo[1,2-a]pyrazin-3-yl)-N-(pyrrolidin-3-yl)pyridin-2-amine]
0.035 nM | Cn1cc(-c2cn3c(-c4cccc(N[C@H]5CNC[C@@H]5F)n4)cnc3cn2)cn1 [Compound 52, N-((3S,4S)-4-fluoropyrrolidin-3-yl)-6-(6-(1-methyl-1H-pyrazol-4-yl)imidazo[1,2-a]pyrazin-3-yl)pyridin-2-amine]
